This note sets out measurements from article PMC4460958 (Frontiers in Neurology, 2015).

SMILES strings stand for the structures.

The experiment deals with T1, human dopamine transporter (hDAT) (Homo sapiens, UniProt Q01959).
T1 construct: gene SLC6A3
T1 sequence (Q01959 whole entry): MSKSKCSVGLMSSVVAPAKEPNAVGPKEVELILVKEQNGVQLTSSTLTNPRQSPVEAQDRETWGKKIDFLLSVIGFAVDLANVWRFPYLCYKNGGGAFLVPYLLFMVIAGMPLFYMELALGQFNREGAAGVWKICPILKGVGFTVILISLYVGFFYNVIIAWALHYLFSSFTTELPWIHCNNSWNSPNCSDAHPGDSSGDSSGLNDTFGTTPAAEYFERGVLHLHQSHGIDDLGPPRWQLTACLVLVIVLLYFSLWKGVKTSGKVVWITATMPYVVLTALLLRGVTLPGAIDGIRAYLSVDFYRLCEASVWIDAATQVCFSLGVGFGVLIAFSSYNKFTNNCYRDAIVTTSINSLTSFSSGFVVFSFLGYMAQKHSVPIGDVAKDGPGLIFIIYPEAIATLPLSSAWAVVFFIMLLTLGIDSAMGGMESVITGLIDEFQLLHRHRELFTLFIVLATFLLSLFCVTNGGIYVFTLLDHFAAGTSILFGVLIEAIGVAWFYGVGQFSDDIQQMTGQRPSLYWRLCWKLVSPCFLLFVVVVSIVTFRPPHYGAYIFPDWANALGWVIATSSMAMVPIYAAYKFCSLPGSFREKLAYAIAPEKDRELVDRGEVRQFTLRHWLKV

Turning to `NCCc1ccc(O)c(O)c1` [DA, dopamine], the “3H-dopamine uptake kinetics (Km, Vmax) in PAE cells stably expressing hDAT” value was “Michaelis–Menten non-linear regression analysis was performed, providing transporter dopamine affinity (Km) and capacity (Vmax) for each condition”.
